No end group written: not given here.
How the values were obtained:
[1] = Quantification of peptides in the hydrolyzed chicken plasma sample and DoT factors; details: ratio of concentration in hydrolyzed chicken plasma sample to taste threshold in model broth
From the text: To identify the peptides which play a key role on taste-active and taste-modulating effects, not only the 21 newly identified peptides, but also literature-known basic tastants (e.g., amino acids, γ-glutamyl peptides, cations, anions, etc.) were quantified in the hydrolyzed chicken plasma sample. Focusing on the 21 newly identified peptides, the taste quality, taste thresholds, dose over threshold (DOT) factors and concentrations of the peptides in the hydrolyzed chicken plasma sample are shown in Table 6. The taste thresholds determined for the newly identified peptides (those are listed in Table 6) were used for the calculation of DoT factors which are defined as the ratio of the concentration of a substance and its corresponding taste threshold concentration. The DoT factors enable a first estimation of the taste contribution as substances with DoT factors≥1 most likely contribute directly to the perceived taste.

sensory panel [2] = test: Taste threshold in water (intrinsic taste), duo-trio tests; assay type: in vivo
Procedure: (§1) The threshold concentrations of 21 newly identified peptides were determined in water for the intrinsic taste and in model broth (pH 6.0 adjusted with 1% formic acid) for the taste modulating properties, respectively (Table 4). The peptides were dissolved, serially diluted 1:2, and presented to the panel using duo-trio-tests with ascending concentrations as reported in literatures. The geometric mean of the last and the second to last concentration was calculated and taken as the individual recognition threshold. The threshold value of the sensory panel was approximated by averaging the threshold values of the individuals in two independent sessions. [formula] • wherein • Cp: the threshold of a panelist, • C1: the first correctly evaluated concentration, • C0: the first misjudged concentration [formula] • wherein • Cs: the thresholds of total panelists, • Cp: the threshold of a panelist, • n: the number of panel members

sensory panel [3] = test: Taste threshold in model broth (taste modulating properties), duo-trio tests; assay type: in vivo; details: for Threshold in model broth / Taste properties in model broth: model broth pH 6.0; for Threshold in model broth: taste modulating threshold; for Taste threshold in model broth: as listed in Table 6
Procedure: as §1

Panelists = test: Salt isointensity test; assay type: in vivo; details: for Average perceived salt isointensity / Salt-taste enhancing or reducing property: peptide 1 mmol/L in model broth containing 50 mM NaCl; for Enhancement or reduction: versus 50 mM NaCl, isointensity above 50 = enhancement, below 50 = reduction, peptide 1 mmol/L
Procedure: To investigate the effects of peptides on the perceived saltiness, a salt isointensity test was performed according to literatures. In salt-isointensity test, the peptides (1 mmol/L) were spiked into model broth containing 50 mM NaCl and the panelists were asked to evaluate the intensity of saltiness compared with the following NaCl concentrations of 30, 40, 50, 60, 70, and 80 mmol/L. The results are shown in Table 5.

sensory panel [4] = test: Taste threshold in model broth (taste modulating properties), duo-trio tests; assay type: in vivo; details: as listed in Table 7
sensory panel [5] = test: Taste threshold in commercial chicken soup, duo-trio tests; assay type: in vivo; details: for Taste threshold in food products, Commercial chicken soup: 3 g powder in 150 mL, spiked at 2 mmol/L, diluted
From the text: To investigate the taste-modulating performance of the identified peptides in food products, the commercial chicken soup and model broth were used for further sensory experiments. According to the sensory experiment, the peptides such as Pro-Val-Leu-Lys (SEQ ID NO: 1), Pro-Leu-Pro-Arg (SEQ ID NO: 2), Glu-Ala-Glu-Phe-Asp (SEQ ID NO: 3), Pro-Gln-Pro-Glu-Arg (SEQ ID NO: 5), and Glu-Asp-Ala-Pro-Val-Leu-His (SEQ ID NO: 7) are spiked into the commercial chicken soup (Netto Marken-Discount AG&CO.KG, Maxhütte-Haidhof) and the model broth. According to the experiments, 3 g of the commercial chicken soup powder was dissolved in 150 mL boiling water. The peptides (each 2 mmol/L) were spiked into 20 mL solution of this solution. Afterwards, the taste threshold was determined by means of duo-trio-tests as previously described (using chicken soup as reference).

In the case of “Pro-Glu-Arg-Asn-Glu (PERNE; Poultry) [SEQ ID NO: 4]”, the DoT factor [1] is reported as 0.1, the Threshold in water (sensory panel [2]) is reported as 100 µmol/L and the “Threshold in model broth” value (sensory panel [3]) is reported as 231 µmol/L.
For EDEVLATP [SEQ ID NO: 21], the Threshold in water (sensory panel [2]) was 894 µmol/L, the “Average perceived salt isointensity” value (Panelists) was 59.8 mmol/L NaCl and the “Salt-taste enhancing or reducing property” value (Panelists) was “salt-tase enhancing”. For the same substance, the Enhancement or reduction (Panelists) was 20% and the “Threshold in model broth” value (sensory panel [3]) was 96 µmol/L.
For ENAPDQK [SEQ ID NO: 12], the DoT factor [1] was 0.2, the Threshold in water (sensory panel [2]) was 907 µmol/L and the “Taste properties in model broth” value (sensory panel [3]) was “kokumi, umami”. For the same substance, the “Threshold in model broth” value (sensory panel [3]) was 137 µmol/L.
With EEVEEEEVE [SEQ ID NO: 10] the DoT factor [1] was 0.1, the Threshold in water (sensory panel [2]) was 233 µmol/L and the “Taste properties in model broth” value (sensory panel [3]) was “umami, kokumi”. For the same substance, the “Threshold in model broth” value (sensory panel [3]) was 34 µmol/L.
In the case of “Pro-Thr-Asp-Leu (PTDL; Poultry) [SEQ ID NO: 15]”, the Threshold in water (sensory panel [2]) is reported as “tasteless” and the “Threshold in model broth” value (sensory panel [3]) is reported as 97 µmol/L.
In the case of EFDEKPAD [SEQ ID NO: 6], the Threshold in water (sensory panel [2]) is reported as “tasteless”, the “Average perceived salt isointensity” value (Panelists) is reported as 60.0 mmol/L NaCl and the “Salt-taste enhancing or reducing property” value (Panelists) is reported as “salt-tase enhancing”. The Enhancement or reduction (Panelists) was 20% and the “Threshold in model broth” value (sensory panel [3]) was 94 µmol/L.
In the case of EDAPVLH [SEQ ID NO: 7], the “Taste threshold in food products, Model broth” value (sensory panel [4]) is reported as 236 µmol/L, the DoT factor [1] is reported as 0.1 and the “Taste properties in water” value (sensory panel [2]) is reported as “astringent”. The Threshold in water (sensory panel [2]) was 565 µmol/L and the “Taste threshold in model broth” value (sensory panel [3]) was 236 µmol/L.
In the case of EFDARPT [SEQ ID NO: 8], the DoT factor [1] is reported as 0.0, the Threshold in water (sensory panel [2]) is reported as “tasteless” and the “Average perceived salt isointensity” value (Panelists) is reported as 66.7 mmol/L NaCl. For the same substance, the “Salt-taste enhancing or reducing property” value (Panelists) was “salt-tase enhancing”, the Enhancement or reduction (Panelists) was 33% and the “Taste properties in model broth” value (sensory panel [3]) was “kokumi, salty”. For the same substance, the “Threshold in model broth” value (sensory panel [3]) was 351 µmol/L.
With “Pro-Ile-Asn-Asp-Asn (PINDN; Poultry) [SEQ ID NO: 14]” the Threshold in water (sensory panel [2]) was “tasteless”, the “Average perceived salt isointensity” value (Panelists) was 63.6 mmol/L NaCl and the “Salt-taste enhancing or reducing property” value (Panelists) was “salt-tase enhancing”. For the same substance, the Enhancement or reduction (Panelists) was 27% and the “Threshold in model broth” value (sensory panel [3]) was 26 µmol/L.
For “Arg-Asn-Gly-Pro-Arg (RNGPR; Poultry) [SEQ ID NO: 17]”, the DoT factor [1] was 0.0, the Threshold in water (sensory panel [2]) was “tasteless” and the “Taste properties in model broth” value (sensory panel [3]) was “kokumi, umami”. The “Threshold in model broth” value (sensory panel [3]) was 101 µmol/L.
For “Pro-Gln-Pro-Glu-Arg (PQPER; Poultry) [SEQ ID NO: 5]”, the “Taste threshold in food products, Model broth” value (sensory panel [4]) was 133 µmol/L, the DoT factor [1] was 0.0 and the Threshold in water (sensory panel [2]) was 705 µmol/L. For the same substance, the “Threshold in model broth” value (sensory panel [3]) was 133 µmol/L, the “Not differentiated up to max concentration tested in commercial chicken soup” value (sensory panel [5]; commercial chicken soup) was greater than 2 mmol/L and the “Taste threshold in food products, Commercial chicken soup” value (sensory panel [5]; commercial chicken soup) was “No effect”.
In the case of EFDEKAPD [SEQ ID NO: 11], the “Taste properties in water” value (sensory panel [2]) is reported as “bitter”, the Threshold in water (sensory panel [2]) is reported as 865 µmol/L and the “Average perceived salt isointensity” value (Panelists) is reported as 62.1 mmol/L NaCl. For the same substance, the “Salt-taste enhancing or reducing property” value (Panelists) was “salt-tase enhancing”, the Enhancement or reduction (Panelists) was 24% and the “Threshold in model broth” value (sensory panel [3]) was 67 µmol/L.
In the case of “Glu-Ala-Glu-Phe-Asp (EAEFD; Poultry) [SEQ ID NO: 3]”, the “Taste threshold in food products, Model broth” value (sensory panel [4]) is reported as 95 µmol/L, the Threshold in water (sensory panel [2]) is reported as 116 µmol/L and the “Average perceived salt isointensity” value (Panelists) is reported as 43.0 mmol/L NaCl. The “Salt-taste enhancing or reducing property” value (Panelists) was “salt-tase reducing”, the Enhancement or reduction (Panelists) was 14% and the “Taste threshold in model broth” value (sensory panel [3]) was 95 µmol/L.
For EGDSAAI [SEQ ID NO: 19], the DoT factor [1] was 0.2, the Threshold in water (sensory panel [2]) was “tasteless” and the “Taste properties in model broth” value (sensory panel [3]) was “umami, kokumi”. For the same substance, the “Threshold in model broth” value (sensory panel [3]) was 212 µmol/L.
For EETPSHD [SEQ ID NO: 9], the DoT factor [1] was 0.1, the Threshold in water (sensory panel [2]) was 283 µmol/L and the “Taste properties in model broth” value (sensory panel [3]) was “umami, kokumi”. For the same substance, the “Threshold in model broth” value (sensory panel [3]) was 36 µmol/L.
For “Pro-Val-Ala-Glu (PVAE; Poultry) [SEQ ID NO: 16]”, the DoT factor [1] was 0.7, the Threshold in water (sensory panel [2]) was 688 µmol/L and the “Average perceived salt isointensity” value (Panelists) was 62.0 mmol/L NaCl. The “Salt-taste enhancing or reducing property” value (Panelists) was “salt-tase enhancing”, the Enhancement or reduction (Panelists) was 24% and the “Taste properties in model broth” value (sensory panel [3]) was “kokumi, salty”. For the same substance, the “Threshold in model broth” value (sensory panel [3]) was 243 µmol/L.
With EPEGDVHQ [SEQ ID NO: 20] the Threshold in water (sensory panel [2]) was 243 µmol/L, the “Taste properties in model broth” value (sensory panel [3]) was “umami, kokumi” and the “Threshold in model broth” value (sensory panel [3]) was 61 µmol/L.
For “Glu-Asp-Met-Ala-Pro (EDMAP; Poultry) [SEQ ID NO: 13]”, the DoT factor [1] was 0.2, the Threshold in water (sensory panel [2]) was 1024 µmol/L and the “Average perceived salt isointensity” value (Panelists) was 43.8 mmol/L NaCl. For the same substance, the Enhancement or reduction (Panelists) was 13%, the “Taste properties in model broth” value (sensory panel [3]) was “kokumi, salty” and the “Threshold in model broth” value (sensory panel [3]) was 151 µmol/L.
With RAEDTATYY [SEQ ID NO: 18] the DoT factor [1] was 0.0, the Threshold in water (sensory panel [2]) was 610 µmol/L and the “Taste properties in model broth” value (sensory panel [3]) was “kokumi, umami”. The “Threshold in model broth” value (sensory panel [3]) was 247 µmol/L.
With “Pro-Val-Leu-Lys (PVLK; Poultry) [SEQ ID NO: 1]” the “Taste threshold in food products, Model broth” value (sensory panel [4]) was 296 µmol/L, the DoT factor [1] was 0.0 and the Threshold in water (sensory panel [2]) was “tasteless”. The “Average perceived salt isointensity” value (Panelists) was 42.9 mmol/L NaCl, the “Salt-taste enhancing or reducing property” value (Panelists) was “salt-tase reducing” and the Enhancement or reduction (Panelists) was 14%. For the same substance, the “Threshold in model broth” value (sensory panel [3]) was 296 µmol/L.
For “Pro-Leu-Pro-Arg (PLPR; Poultry) [SEQ ID NO: 2]”, the “Taste threshold in food products, Model broth” value (sensory panel [4]) was 112 µmol/L, the DoT factor [1] was 0.0 and the “Taste properties in water” value (sensory panel [2]) was “astringent”. The Threshold in water (sensory panel [2]) was 296 µmol/L, the “Taste properties in model broth” value (sensory panel [3]) was “umami, kokumi” and the “Threshold in model broth” value (sensory panel [3]) was 112 µmol/L. The “Threshold in model broth, times lower than in commercial chicken soup” value (sensory panel [5]; chicken soup versus model broth) was 4 times and the “Taste threshold in food products, Commercial chicken soup” value (sensory panel [5]; commercial chicken soup) was 418 µmol/L.

From patent US20260055137A1, “NOVEL ISOLATED PEPTIDES, PROTEIN HYDROLYSATE COMPRISING THE SAID ISOLATED PEPTIDES AND USE THEREOF” (BETAGRO PUBLIC COMPANY LIMITED, priority 2022, published 2026)
